Key:
[1] = Absorption coefficient (absorbance of 0.001% solution in tetrahydrofuran); format: physicochemical; details: for Λ max (absorption maximum wavelength): 0.001% (wt/vol) in tetrahydrofuran, from 280 nm to 400 nm; for Absorption coefficient at 365 nm / Absorption coefficient at Λ max: 0.001% (wt/vol) solution in tetrahydrofuran
Method: A 0.001% (wt/vol) solution of each of the compounds 1, 2, 4, 6, 8, 9, 11, 12, 13, 15, 16, D-1, D-3, D-4, D-7, D-8, D-9, D-12, D-14, D-15, D-20, C-1, and C-2 in tetrahydrofuran was prepared, and its absorbance was measured with a spectrophotometer (manufactured by Hitachi High-Technologies Corporation, trade name: “U-3900H”). An absorption maximum wavelength (Amax) at a wavelength of from 280 nm to 400 nm was read from an absorption spectrum obtained with the spectrophotometer.

[2] = Decomposition point by thermal analysis (TG-DTA); format: physicochemical; details: 5.0 mg
Method: The compounds 1, 2, 4, 6, 8, 9, 11, 12, 13, 15, 16, D-1, D-3, D-4, D-7, D-8, D-9, D-12, D-14, D-15, D-20, C-1, and C-2 were each subjected to measurement with a thermal analysis apparatus (TG-DTA) (manufactured by Rigaku Corporation, trade name: “Thermo Plus EVO TG 8120”) by using 5.0 mg thereof.

[3] = Evaluation 1: 20-μm pattern line width of transparent photosensitive composition; details: for 20-μm pattern line width: transparent composition, initiator 0.4 mmol
Method: After that, the mixture was filtered with a membrane filter having an aperture of 5 μm to provide a photosensitive composition.
It should be noted that the fluorene-based compound as a photopolymerization initiator was used in such an amount that its molar quantity was kept constant in the respective examples and comparative examples.
The glass substrate after the application was dried with a fan dryer at 90° C. for 10 minutes. Thus, a coating film (photosensitive layer) was formed. Next, the film was exposed to light having an exposure energy quantity of 5 mJ/cm^2, 10 mJ/cm^2, 20 mJ/cm^2, 40 mJ/cm^2, 60 mJ/cm^2, or 80 mJ/cm^2 by using a high-pressure mercury lamp (manufactured by Karl Suss, trade name: “MASK ALIGNER”) through a negative mask (mask width: 20 μm). Next, the resultant was immersed in a 0.1 wt % aqueous solution of tetramethylammonium hydroxide (TMAH) and then rinsed with pure water. The remaining cured film was subjected to the following evaluation.
(§1) A larger value for the line width means higher sensitivity.

[4] = Average transmittance of composition; format: physicochemical; details: photosensitive composition, quartz cell, optical path length 1 cm
Method: The average transmittance (%) of each of the photosensitive resin compositions obtained in Examples 1 to 9, Examples 2-1 to 2-10, and Comparative Examples 1 and 2 in the range of from 400 nm to 700 nm was measured with a spectrophotometer (manufactured by Hitachi High-Technologies Corporation, trade name: “U-3900H”, quartz cell, optical path length; 1 cm).

[5] = Transmittance of transparent cured film; format: physicochemical; details: for Average transmittance (700 nm to 400 nm) Transparent cured film / Transmittance (400 nm) Transparent cured film: cured at exposure energy quantity 80 mJ/cm^2
Method: Transparent cured films were formed by using the photosensitive compositions obtained in Examples 1 to 9, Examples 2-1 to 2-10, and Comparative Examples 1 and 2 in the same manner as in the evaluation 1 except that the exposure energy quantity was set to 80 mJ/cm^2. The transmittance (%) of each of the resultant transparent cured films at 400 nm and the average transmittance (%) thereof in the range of from 400 to 700 nm were measured with a spectrophotometer (manufactured by Hitachi High-Technologies Corporation, trade name: “U-3900H”, quartz cell, optical path length; 1 cm). A higher transmittance at 400 nm means less coloring with a yellow color. In addition, a higher transmittance of a coating film means a higher transmitting property of a pattern to be formed.

[6] = Evaluation 3: 20-μm pattern line width of black photosensitive composition; details: black composition (carbon black, cardo resin), initiator 0.4 mmol
From the text: The mixture was filtered with a membrane filter having an aperture of 5 μm to provide a photosensitive composition.
Photosensitive compositions were each obtained in the same manner as in Example 10 except that the used fluorene-based compound and its usage were changed as shown in Table 5.
Each of the photosensitive compositions obtained in Examples 10 to 15, Examples 2-11 to 2-20, and Comparative Example 3 was applied onto a glass substrate with a spin coater (manufactured by Kyowariken Co., Ltd., trade name: “K-359SD1”) so that its thickness after drying became 1.0 μm. The glass substrate after the application was dried with a fan dryer at 90° C. for 10 minutes. Thus, a coating film (photosensitive layer) was formed. Next, the film was exposed to light having an exposure energy quantity of 10 mJ/cm^2, 20 mJ/cm^2, 40 mJ/cm^2, 60 mJ/cm^2, or 80 mJ/cm^2 by using a high-pressure mercury lamp (manufactured by Karl Suss, trade name: “MASK ALIGNER”) through a negative mask (mask width: 20 μm). Next, the resultant was immersed in a 0.1 wt % aqueous solution of tetra methyl ammonium hydroxide (TMAH) and then rinsed with pure water. The remaining cured film was subjected to the following evaluation. In addition, FIGS. 2, 3, and 6 show microscope photographs of black cured films obtained by using the photosensitive compositions of Examples 10 and 11, and Comparative Example 3, and FIGS. 7 to 11 show microscope photographs of black cured films obtained by using the photosensitive compositions of Examples 2-11, 2-13, 2-14, 2-17, and 2-18.
as §1

[7] = Solubility in PGME, PGMEA and ethyl lactate; format: physicochemical; details: room temperature
Method: An evaluation for solubility was performed in accordance with the following evaluation criteria based on the dissolution amount.
A: 10 Parts by weight or more of the photopolymerization initiator is dissolved.
B: An amount in the range of from 5 parts by weight or more to less than 10 parts by weight of the photopolymerization initiator is dissolved.
C: An amount in the range of from 2 parts by weight or more to less than 5 parts by weight of the photopolymerization initiator is dissolved.
D: Less than 2 parts by weight of the photopolymerization initiator is dissolved.

[8] = exposure energy quantity 10 mJ/cm^2
[9] = exposure energy quantity 20 mJ/cm^2
[10] = exposure energy quantity 40 mJ/cm^2
[11] = exposure energy quantity 60 mJ/cm^2
[12] = exposure energy quantity 80 mJ/cm^2
[13] = photopolymerization initiator containing the compound
[14] = exposure energy quantity 5 mJ/cm^2

| SMILES | Λ max (absorption maximum wavelength) [1] [nm] | Absorption coefficient at 365 nm [1] [mL/mg/cm] | Absorption coefficient at Λ max [1] [mL/mg/cm] | Decomposition point [2] [°C] | 20-μm pattern line width [3, 8] | 20-μm pattern line width [3, 9] | 20-μm pattern line width [3, 10] | 20-μm pattern line width [3, 11] | 20-μm pattern line width [3, 12] | Average transmittance (700 nm to 400 nm) Solution [4] [%] | Average transmittance (700 nm to 400 nm) Transparent cured film [5] [%] | Transmittance (400 nm) Transparent cured film [5] [%] | 20-μm pattern line width ([6]; 10 mJ/cm^2) | 20-μm pattern line width ([6]; 20 mJ/cm^2) | 20-μm pattern line width ([6]; 40 mJ/cm^2) | 20-μm pattern line width ([6]; 60 mJ/cm^2) | 20-μm pattern line width ([6]; 80 mJ/cm^2) | 20-μm pattern line width [3, 14] | further results |
| --- | --- | --- | --- | --- | --- | --- | --- | --- | --- | --- | --- | --- | --- | --- | --- | --- | --- | --- | --- |
| CCCCCCC1(CCCCCC)c2cc(C(=O)c3ccc([N+](=O)[O-])cc3)ccc2-c2ccc(C(CC(C)N(OC(C)=O)C(C)=O)=NOC(C)=O)cc21 (racemic) [Compound 12] | 335.5 | 11.8 | 43.0 | 195.2 | 19.8 | 20.0 | 21.0 | 21.2 | 21.5 | 77.8 | 99.8 | 99.7 |  |  |  |  |  |  |  |
| CCCCCCC1(CCCCCC)c2cc(C(=O)c3ccc(F)cc3)ccc2-c2ccc(/C(CC(C)N(OC(C)=O)C(C)=O)=N\OC(C)=O)cc21 (centres unmarked) [Compound 9] | 330.0 | 3.0 | 54.0 | 192.7 | 19.9 | 20.5 | 21.3 | 22.2 | 22.8 | 94.0 | 100.0 | 99.4 | 19.9 | 20.5 | 21.3 | 22.2 | 22.8 |  | transparency of photosensitive composition and formed product (in words) [5, 13]: additionally excellent transparency |
| CCCCCCC1(CCCCCC)c2cc(C(=O)C(=NOC(C)=O)c3cc(C)ccc3C)ccc2-c2ccc(C(=O)c3ccc([N+](=O)[O-])cc3)cc21 [Compound 13] | 338.5 | 9.2 | 36.3 | 167.1 | 19.4 | 19.6 | 19.8 | 20.6 | 21.0 | 79.2 | 99.4 | 97.0 |  |  |  |  |  |  |  |
| CCn1c2ccc(/C(=N\OC(C)=O)c3ccc(OC(C)COC)cc3C)cc2c2cc([N+](=O)[O-])ccc21 (centres unmarked) [Compound C-2, reference compound] | 369.0 | 26.8 | 27.2 | 264.0 | 21.3 | 22.3 | 23.6 | 23.5 | 24.0 | 75.9 | 95.1 | 72.7 |  |  |  |  |  |  | Solubility Ethyl lactate ([7]; in 100 parts by weight of ethyl lactate): C (An amount in the range of from 2 parts by weight or more to less than 5 parts by weight of the photopolymerization initiator is dissolved.); Solubility PGMEA ([7]; in 100 parts by weight of propylene glycol monomethyl ether acetate): B (An amount in the range of from 5 parts by weight or more to less than 10 parts by weight of the photopolymerization initiator is dissolved.); Solubility PGME ([7]; in 100 parts by weight of propylene glycol monomethyl ether): C (An amount in the range of from 2 parts by weight or more to less than 5 parts by weight of the photopolymerization initiator is dissolved.) |
| CCCC1(CCC)c2cc(C(CCCSc3ccc(Cl)cc3)=NOC(C)=O)ccc2-c2ccc([N+](=O)[O-])cc21 [Compound D-14] | 345.5 | 36.3 | 53.9 | 186.9 | 20.6 | 21.7 | 22.8 |  | 23.2 | 65.1 | 99.5 | 92.7 | 19.9 | 20.6 | 21.7 | 22.8 | 23.2 | 19.9 | sensitivity to the active energy ray (in words) [3, 13]: additionally high sensitivity to the active energy ray |
| CCCC1(CCC)c2cc(C(=O)C(CCSc3ccc(Cl)cc3)=NOC(C)=O)ccc2-c2ccc([N+](=O)[O-])cc21 [Compound D-15] | 346.0 | 36.7 | 52.6 | 202.1 | 19.9 | 20.7 | 21.4 |  | 22.3 | 86.2 | 99.1 | 91.9 | 19.5 | 19.9 | 20.7 | 21.4 | 22.3 | 19.5 |  |

Reference: patent US9684238B2, “Fluorene-type compound, photopolymerization initiator comprising said fluorene-type compound, and photosensitive composition containing said photopolymerization initiator” (TOKYO OHKA KOGYO CO., LTD., priority 2012, dated 2017)
